Measured values as given in patent US20230346743A1, “COMBINATION CANCER THERAPIES” (The Board of Regents of the University of Oklahoma, priority 2018, published 2023).

Legend:
[1] = test system: FTSECs; assay: MTT cytotoxicity assay and Chou-Talalay drug interaction; format: cell-based, human; conditions: hFTSECs
Method: Cells plated at 2000 cells/well in 96 well microtiter plates were incubated for 36-48 h and treated with a range of doses and combinations of SHetA2 and PRIMA-1 or PRIMA-1^MET, or the same volume of DMSO solvent for 72 h of incubation. The percentage of growth for single drug treatments or fold effect (1 - ratio of treated/untreated growth) was measured using the CellTiter 96 AQueous Non-Radioactive Cell Proliferation Assay (Promega, Madison, WI, USA) and the BioTeK SYNERGY H1 (BioTeK, Winooski, VT, USA). Each experiment was performed in triplicate and repeated 2-3 times.
The potencies (IC50′s) of SHetA2 or PRIMA-1 were determined using GraphPad Prism 6 software analysis of average MTT Optical Density vs drug dose. […] Single drug treatments at doses surrounding the IC50 values were evaluated parallel. All treatments were performed in triplicate and averages used to draw isobolograms and calculate combination indices (CI) and dose-reduction indices (DRIs) using CompuSyn Software according to the Chou and Talalay method (op cit). All experiments were repeated at least twice for each cell line to confirm results.

[2] = test system: MESOV human ovarian cancer cells; assay: Tumor establishment after intraperitoneal injection of MESOV cells (secondary chemoprevention model); format: in vivo; conditions: nu/nu mice, MESOV i.p.
Method: Four-week-old female athymic nude mice (NCr-Foxn1^nu) were obtained from Taconic Biosciences under an approved Institutional Animal Care and Use Committee (IACUC) protocol. Mice were acclimatized for two weeks, fed with a standard diet and ear tagged during the acclimatization period. The timing to tumor development after intraperitoneal injection with various amounts of MESOV cells was determined in a pilot study prior. In the intervention experiment, 6-week-old mice were injected with 20 million MESOV human ovarian cancer cells in their intraperitoneal region. Drug treatment was initiated 4 weeks after the injection of cancer cells. Mice were randomized to four treatment groups before the start of treatment based on their body weight. There was no significant (one-way ANOVA, p >0.999) difference in body weight between groups at the start of treatment. Twelve mice were allocated to each group based on the power analysis performed while designing experiment. […] Controls were gavaged with Kolliphor HS15 (30% in water). […] (10 mg/kg) was dissolved in phosphate buffered saline and injected into the peritoneum of mice every other day. Initially SHetA2 dosing was administered every day for two weeks in SHetA2 alone and drug combination groups, and then switched to every other day for the next three weeks due to the stress caused to the mice by daily gavage. Oral gavaging was performed with sterile disposable plastic feeding tubes 20 ga × 38 mm (Instech Laboratories, Inc., Plymouth Meeting, PA, USA). Three mice in the drug combination group died after two weeks of drug treatment due to gavaging incidents. Body weights were recorded and animal health was monitored weekly. After the end of drug intervention period, all mice were euthanized by CO2 asphyxiation followed by exsanguination, their tumors and other vital organs were collected for further analysis. After measuring the total tumor weight, a portion of the tumors were snap frozen in liquid nitrogen and another portion was formalin fixed. The formalin fixed tissue samples were paraffin embedded, sectioned and stained with hematoxylin and eosins for histology studies. An experienced pathologist reviewed blinded histology slides for kidney and liver toxicity. Presence or absence of tumor at the end of the treatment period was used as the primary outcome measure. […] Two by two logistic regression was used to compare the four treatment groups (Untreated control, SHetA2, […] combination) in the study. Mice in the first 3 groups had complete data, while 3 mice in the combo group died early and had zero tumor weights. […]

[3] = test system: SiHa cervical cancer cell line xenograft; assay: SiHa xenograft tumor growth; format: in vivo, mice; conditions: gavage 60 mg/kg SHetA2, 100 mg/kg palbociclib or the combination every other day
Excerpt: FIG. 49. […] Controls were gavaged with the same Kolliphor HS15 used to suspend the drugs. Using a generalized estimating equations (GEE) model to analyze tumor growth treated as a continuous variable, there was a significant additive effect of SHetA2 (p<0.001) and palbociclib (p<0.001) on day 65 of treatment. This additive effect between SHetA2 (p=0.001) and palbociclib (p=0.051) was trending significant at day 63 of treatment. Additionally, SHetA2 starts to show significant tumor suppressing activity as early as day 63 of treatment (p=0.045).

[4] = test system: TP21 gene; assay: qRT-PCR of TP21 in SKOV3 cells; format: cell-based, human; conditions: SKOV3 parental (p53 null) and R273H m-p53 cells; SHetA2 10 µM, PRIMA-1 20 µM, 16 h

CC1(C)CC(C)(C)c2cc(NC(=S)Nc3ccc([N+](=O)[O-])cc3)ccc2S1 [SHetA2]
SHetA2 sensitivity compared with ovarian cancer cell lines [1]: least sensitive | OR for preventing tumor development (additive logistic regression model) [2]: 10.384 | Tumor-free rates ([2]; SHetA2 60 mg/kg gavage, PRIMA-1^MET 10 mg/kg i.p., treatment from day 28 for 38 days): 42% | SiHa xenograft tumor growth [3]: significantly reduce SiHa cervical cancer cell line xenograft tumor growth | TP21 transcription (qRT-PCR) [4]: induced TP21 transcription
